Measurements: patent publication US20140349943A1, “TOPICAL FORMULATIONS OF CHEMERIN C15 PEPTIDES FOR THE TREATMENT OF DERMATOLOGICAL CONDITIONS” (priority 2011, published 2014)
Peptide text beside a SMILES is read from it.

Key:
GPR1 = target: T1, GPR1 (Homo sapiens, UniProt P46091); assay: PathHunter β-Arrestin assay, GPR1, agonist and antagonist mode; assay type: cell-based; settings: for agonist activity, in words: FIG. 2A/2B
T1 construct: host or cells: CHO
T1 sequence (P46091 1-355): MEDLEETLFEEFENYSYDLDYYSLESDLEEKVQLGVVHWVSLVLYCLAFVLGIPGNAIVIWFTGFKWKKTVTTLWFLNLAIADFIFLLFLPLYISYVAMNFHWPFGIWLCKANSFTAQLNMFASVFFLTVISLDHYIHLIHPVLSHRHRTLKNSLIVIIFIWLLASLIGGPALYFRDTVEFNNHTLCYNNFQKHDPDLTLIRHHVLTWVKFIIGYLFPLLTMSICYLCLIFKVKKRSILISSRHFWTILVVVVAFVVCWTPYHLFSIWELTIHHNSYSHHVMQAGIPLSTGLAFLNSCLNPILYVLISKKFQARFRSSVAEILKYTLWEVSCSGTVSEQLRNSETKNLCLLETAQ
Description: (§1) The DiscoveRx PathHunter™ eXpress GPCR activity assay was employed to test agonist and antagonist activities of the chemerin peptides against the GPCRs ChemR23 and GPR1. Two assay formats were tested, the PathHunter β-Arrestin assay and the Hit Hunter cAMP Hunter assay.
(§2) The PathHunter β-Arrestin assay monitors the activation of a GPCR in a homogenous, non-imaging assay format using a technology developed by DiscoveRx called complementation, which utilizes an enzyme fragment complementation (EFC) assay with β-galactosidase (β-Gal) as the functional reporter. The enzyme is split into two complementary portions expressed as fusion proteins in the cell. The Enzyme Acceptor (EA) is fused to β-Arrestin and the ProLink donor peptide is fused to the GPCR of interest. Upon GPCR stimulation, β-Arrestin is recruited to the receptor for desensitization, bringing the two fragments of β-Gal together and allowing complementation to occur.
(§3) The assay involves CHO cell lines that express 1) a GPCR of interest (e.g. ChemR23 or GPR1) that has a fragment of the βgal enzyme fused to the C-terminus of the receptor and 2) a β-arrestin fused to the main β-gal enzyme. When the agonist binds to the receptor, β-arrestin is recruited to the receptor and the β-gal enzyme is complemented by the fragment from the GPCR thus forming a functional β-gal enzyme. A substrate is then added and luminescence is generated to detect β-arrestin recruitment.
(§4) The protocol used was a standard protocol employed by DiscoveRx PathHunter™ profiling service. […] Once it was established that the cells were healthy and growing normally, cells were passaged from flasks using cell dissociation reagent and seeded into white walled clear bottom 384-well microplates for compound profiling. For profiling, cells were seeded at a density of 5000 cells per well in a total volume of 20 μL and were allowed to adhere and recover overnight prior to compound addition.
(§5) For the agonist assay, intermediate dilution of compound stocks were generated such that 5 μL of 5× compound could be added to each well with a final DMSO concentration of 1% of total volume. For profiling compound in agonist mode, the cells were incubated in the presence of compound at 37° C. for 90 minutes.
(§6) For the antagonist assay, agonist dose curves were performed the morning of profiling to determine the EC80 value for the following antagonist testing with compounds. 5 μL of 5× agonist (i.e. chemerin) was added to each well with an equal concentration of vehicle present. EC80 agonist concentration was determined directly from agonist dose curve. For antagonist determination, cells were preincubated with antagonist followed by agonist challenge at the EC80 concentration: 4. 5 μL of 5× compound added to cells and incubated at 37° C. for 30 minutes. 5. 5 μL of 6× EC80 agonist added to cells and incubated at 37° C. for 90 minutes.
(§7) Microplates were read following signal generation with a PerkinElmer Envision™ instrument for chemiluminescent signal detection
(§8) Dose curves in the presence and absence of compound were plotted using GraphPad Prism or Activity Base. For agonist mode assays, percentage activity was calculated using the following formula: % Activity=100%×(Mean RLU of test sample−mean RLU of vehicle control)/(mean MAX RLU control ligand−mean RLU of vehicle control)). For antagonist mode assays, percentage inhibition was calculated using the following formula: % Inhibition=100%×(1−(Mean RLU of test sample−mean RLU of vehicle control)/(mean RLU of EC80 control−mean RLU of vehicle control)).

ChemR23 (CMKLR1) = target: T2, ChemR23 (CMKLR1) (Homo sapiens, UniProt Q99788); assay: PathHunter β-Arrestin assay, ChemR23 (CMKLR1), agonist and antagonist mode; assay type: cell-based
T2 construct: host or cells: CHO
T2 sequence (Q99788 1-373): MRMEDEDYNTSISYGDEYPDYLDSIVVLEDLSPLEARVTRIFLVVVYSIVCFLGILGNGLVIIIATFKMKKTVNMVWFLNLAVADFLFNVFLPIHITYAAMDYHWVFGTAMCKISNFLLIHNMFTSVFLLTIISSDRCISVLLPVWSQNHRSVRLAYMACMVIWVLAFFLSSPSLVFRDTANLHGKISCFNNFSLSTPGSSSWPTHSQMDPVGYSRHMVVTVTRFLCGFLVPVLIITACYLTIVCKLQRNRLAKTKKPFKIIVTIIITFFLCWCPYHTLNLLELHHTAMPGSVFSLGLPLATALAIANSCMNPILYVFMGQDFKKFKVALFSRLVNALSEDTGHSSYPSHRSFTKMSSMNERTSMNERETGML
Description: as §1, §2, §3, §4, §5, §6, §7, §8

ChemR23 = target: T3, ChemR23 (Homo sapiens, UniProt Q99788); assay: Hit Hunter cAMP Hunter assay, human ChemR23; assay type: cell-based
T3 sequence (Q99788 1-373): T2 sequence (Q99788 1-373)
Description: as §1
as §4, with “reagent buffer” for “reagent”, “10000” for “5000”, “addition. Cells were treated the following day using the protocols shown below. cAMP modulation was determined using the DiscoveRx HitHunter cAMP XS+ assay.” for “addition.”
For profiling compound in agonist mode, the cells were incubated in the presence of compound at 37° C. for 30 minutes.
EC80 agonist concentration was determined directly from agonist dose curve.
Microplates were read following signal generation with a PerkinElmer Envision™ instrument for chemiluminescent signal detection.
Dose curves in the presence and absence of compound were plotted using GraphPad Prism or Activity Base.

mChemR23 = target: T4, mChemR23 (Mus musculus, UniProt P97468); assay: PathHunter β-Arrestin assay, mouse ChemR23; assay type: cell-based
T4 construct: host or cells: CHO (stated generally for the PathHunter assay)
T4 sequence (P97468 1-371): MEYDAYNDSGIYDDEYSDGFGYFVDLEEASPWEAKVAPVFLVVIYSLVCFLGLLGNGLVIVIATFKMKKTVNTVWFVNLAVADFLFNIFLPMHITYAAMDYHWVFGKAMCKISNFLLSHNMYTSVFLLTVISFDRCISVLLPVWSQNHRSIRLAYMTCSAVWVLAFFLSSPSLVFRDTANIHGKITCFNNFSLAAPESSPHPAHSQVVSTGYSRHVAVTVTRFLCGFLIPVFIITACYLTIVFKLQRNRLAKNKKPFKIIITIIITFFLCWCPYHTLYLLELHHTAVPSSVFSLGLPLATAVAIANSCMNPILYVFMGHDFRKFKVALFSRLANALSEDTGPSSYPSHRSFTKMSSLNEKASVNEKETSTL
Description: as §1, §2, §3, §4, §5
as §6, with “5 μL of 6× EC80 agonist added to cells and incubated at 37° C. for 90 minutes.” left out
as §7, §8

[1] = test system: IFNγ/LPS stimulated human macrophages; assay: Cytokine secretion by IFNγ/LPS stimulated human macrophages (Luminex); assay type: cell-based
Source text: In this example, the ability of human chemerin C15 to inhibit secretion of cytokines from activated human macrophages was examined. For this experiment, the activity of the human chemerin C15 peptide […] (SEQ ID NO: 1) was compared to that of the human chemerin C17 peptide […] (SEQ ID NO: 25). The C15 and C17 peptides were synthesized by solid phase synthesis using BOP coupling of FMOC protected amino acids with final cleavage from the resin with TFA. Peptides were purified by reverse phase C18 chromatography using a water/acetonitrile gradient.
Human macrophages were derived from human CD14+ monocytes obtained from 3 donors. On Day 1, the isolated monocytes were thawed and seeded in triplicate for each group in 1 ml RPMI 1640 GlutaMAX™ media (supplemented with 10% FBS, 100 U/ml penicillin, 100 μg/ml streptomycin, 0.05 μM mercaptoethanol, 1% NEAA and 1% sodium pyruvate) per well of a 24 well cell culture dish at a cell concentration of 5×10^5 cells/ml. M-CSF was added to each well to give a final concentration of 25 ng/ml. Cells were grown for 7 days at 37° C. with 5% CO2 to differentiate the cells into macrophages. Media and M-CSF were replaced after 4 days.
Following differentiation, the media containing M-CSF was removed. The cells were washed and vehicle control, dexamethasone, C15 or C17 were added to the appropriate wells. The test peptides were dissolved in 50% DMSO/water prior to addition. C-15 (MW 1669; 16.7 mg/ml) was added to a final concentration of […] and C17 (MW 1904; 19.0 mg/ml) was added to a final concentration of 1 μM. Dexamethasone was added to a final concentration of 1 μM. Following addition to the wells, the plates were incubated at 37° C. with 5% CO2 for 1 hour. An equal volume of complete media was added to the non-treated wells. Control or test treatments were maintained at the correct concentration throughout the assay.
IFNγ (final concentration 20 ng/ml) was then added to the appropriate wells. Following IFNγ addition, the plates were incubated at 37° C. with 5% CO2 for 4 hours. The concentration of vehicle control, test treatments or dexamethasone was maintained during IFNγ stimulation. LPS (final concentration 10 ng/ml) was then added to the appropriate wells. Following LPS addition, the plates were incubated at 37° C. with 5% CO2 for 15 hours. After 6 hours, ˜60 μl of culture supernatant was removed from all wells and stored at −80° C. for analysis. The concentration of vehicle control, test treatments or dexamethasone was maintained during LPS stimulation.
At 15 hours post LPS stimulation, the remaining cell culture supernatant was harvested and stored at −80° C. until assayed. The concentration of vehicle control, test treatments or dexamethasone was maintained until culture termination.
Cell culture supernatants taken at 6 hours and 15 hours post LPS addition were assayed for the production of RANTES, TNFα, IL-1β, IL-6, IL-10, IL-12p40 (subunit common to IL-12 and IL-23) and IL-15 (negative control) using Luminex® technology (Procarta human cytokine kit; Panomics) following the manufacturer's instructions.
In this experiment, the importance of the FYFP motif (SEQ ID NO: 2) in the human chemerin C15 peptide on anti-inflammatory activity was examined. The ability of the human chemerin C15 peptide […] (SEQ ID NO: 1) was compared to that of a substituted chemerin C15 peptide having the amino acid sequence […] (SEQ ID NO: 27), where the second phenylalanine in the peptide is modified to alanine. The experiment was performed as described in Example 1. 0.1 pM 0.5 pM and 1 pM concentrations of the C15 and C15 mutant peptides were tested. Cytokine expression was determined as described in Example 1.

psoriasis patients = settings: cited from earlier work
[2] = Example 3, 0.1 pM 0.5 pM and 1 pM tested, FIG. 3

For `C[C@H](N)C(=O)NCC(=O)N[C@@H](CCC(=O)O)C(=O)N[C@@H](CC(=O)O)C(=O)N1CCC[C@H]1C(=O)N[C@@H](Cc1c[nH]cn1)C(=O)N[C@@H](CO)C(=O)N[C@@H](Cc1ccccc1)C(=O)N[C@@H](Cc1ccc(O)cc1)C(=O)N[C@@H](Cc1ccccc1)C(=O)N1CCC[C@H]1C(=O)NCC(=O)N[C@@H](CCC(N)=O)C(=O)N[C@@H](Cc1ccccc1)C(=O)N[C@@H](C)C(=O)N[C@@H](Cc1ccccc1)C(=O)O` [C16 (human)] (H-AGEDPHSFYFPGQFAF-OH; N-terminus and C-terminus assumed), which IC50 (GPR1) is on record?
Its IC50 is greater than 10 µM.

What about the “agonist activity, in words” value (GPR1; GPR1) of the same compound?
The value was “exhibited agonist activity”.

And the “Rank Order” value (GPR1; GPR1, agonist)?
Its value is 2.

And the “% Max Activity” value (GPR1; GPR1, agonist mode)?
Its value is 87.9%.

What about the “% Max Inhibition” value (GPR1; GPR1, antagonist mode, chemerin at EC80) of the same compound?
Its value is 0%.

And the IC50 (ChemR23 (CMKLR1))?
The IC50 was greater than 10 µM.

What about the “Rank Order” value (ChemR23 (CMKLR1); ChemR23, agonist) of the same compound?
Its value is 1.

What about the “% Max Activity” value (ChemR23 (CMKLR1); ChemR23, agonist mode) of the same compound?
Its value is 98.6%.

What about the “% Max Inhibition” value (ChemR23 (CMKLR1); ChemR23, antagonist mode, chemerin at EC80) of the same compound?
The value was 0%.

And the “agonist activity, in words” value (ChemR23 (CMKLR1); human ChemR23, FIG. 2A/2B)?
Its value is “exhibited agonist activity”.

What about the IC50 (ChemR23) of the same compound?
The IC50 was greater than 10 µM.

And the IC50 (mChemR23)?
Its IC50 is greater than 10 µM.

With `C[C@@H]1C[C@H]2[C@@H]3CCC4=CC(=O)C=C[C@]4(C)[C@@]3(F)[C@@H](O)C[C@]2(C)[C@@]1(O)C(=O)CO` [Dexamethasone] as the compound, how does the “inhibition of IL-1β secretion” value ([1]; 1 μM dosage) read?
The value was “approximately 30%”.

What about the “inhibition of RANTES secretion” value ([1]; 1 μM dosage) of the same compound?
Its value is roughly 50%.

What about the inhibition at 1 µM ([1]; Homo sapiens, Macrophage, dexamethasone 1 μM, read-out: inhibition of the production of IL-10) of the same compound?
Its inhibition at 1 µM is roughly 70%.

For “AGEDPHGYFAPGQFA [mutant C15 polypeptide]”, which “percent inhibition of RANTES expression” value [1, 2] is on record?
Its value is “unable to inhibit expression”.

And the “percent inhibition of TNFα expression” value [1, 2]?
The value was “unable to inhibit expression”.

For “Stelara: approved systemic mono-clonal antibody for psoriasis, clears IL-23”, which “time of maximal serum concentrations” value (psoriasis patients; post-injection) is on record?
The value was 5 days.

What about the “improvement in PASI score” value (psoriasis patients; within two weeks after a single dose) of the same compound?
Its value is 50%.

Which “agonist activity, in words” value (GPR1; GPR1) does the source give for “hrChemerin: chemerin protein, control agonist of ChemR23 and GPR1” here?
The value was “potent agonist activity”.

What about the EC50 (mChemR23; Arrestin, Agonist, mChemR23, read-out: RC50 (uM), EC50) of the same compound?
The EC50 was 0.00154 µM.
